In ChEMBL document CHEMBL1201862, “PubChem BioAssay data set” (2004):
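The compound was tested at five concentrations on cells cultured in 96-well plates, with a 48-hour exposure period. Here, GI50 denotes the concentration required for 50% inhibition of growth.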 The source made the active and inactive calls. Rule as the data show it: active = GI50 up to about 1.1 µM and inactive = higher.

Assays:
Assay in all cases: DTP human tumour cell line panel, 48 h
M14 = system: M14
UACC-62 = system: UACC-62
CAKI-1 = system: CAKI-1
SW-620 = system: SW-620
TK-10 = system: TK-10
HCT-116 = system: HCT-116
A498 = system: A498
UO-31 = system: UO-31
MOLT-4 = system: MOLT-4
SNB-75 = system: SNB-75
LOX IMVI = system: LOX IMVI
Hs-578T = system: Hs-578T
Malme-3M = system: Malme-3M
OVCAR-5 = system: OVCAR-5
BT-549 = system: BT-549
KM12 = system: KM12
OVCAR-3 = system: OVCAR-3
HOP-62 = system: HOP-62
NCI-H23 = system: NCI-H23
A549 = system: A549
EKVX = system: EKVX
IGROV-1 = system: IGROV-1
HOP-92 = system: HOP-92
MCF7 = system: MCF7
MDA-MB-435 = system: MDA-MB-435
HT-29 = system: HT-29
U-251 = system: U-251
SF-268 = system: SF-268
SK-MEL-5 = system: SK-MEL-5
SK-MEL-2 = system: SK-MEL-2
MDA-N = system: MDA-N
SF-295 = system: SF-295
OVCAR-8 = system: OVCAR-8
NCI-H460 = system: NCI-H460
SK-OV-3 = system: SK-OV-3
DU-145 = system: DU-145
COLO 205 = system: COLO 205
SNB-19 = system: SNB-19
RPMI-8226 = system: RPMI-8226
786-0 = system: 786-0
SF-539 = system: SF-539
PC-3 = system: PC-3
NCI-H226 = system: NCI-H226
HCT-15 = system: HCT-15
T47D = system: T47D
UACC-257 = system: UACC-257
SN12C = system: SN12C
NCI-H522 = system: NCI-H522
MDA-MB-231 = system: MDA-MB-231
RXF 393 = system: RXF 393
ACHN = system: ACHN
SK-MEL-28 = system: SK-MEL-28
OVCAR-4 = system: OVCAR-4
NCI/ADR-RES = system: NCI/ADR-RES
SR = system: SR
K562 = system: K562
CCRF-CEM = system: CCRF-CEM
HL-60 = system: HL-60
HCC 2998 = system: HCC 2998

Measured: GI50

CCCC1c2c(ccc3ccccc23)Oc2ccc3ccccc3c21
31.6 µM: HCT-15
inactive: M14 74 µM | UACC-62 84.9 µM | CAKI-1 > 100 µM | SW-620 82.4 µM | TK-10 35.7 µM | HCT-116 20.7 µM | A498 23.7 µM | UO-31 > 100 µM | MOLT-4 37.6 µM | SNB-75 > 100 µM | LOX IMVI 32.5 µM | Hs-578T > 100 µM | Malme-3M 57.3 µM | OVCAR-5 54.1 µM | BT-549 > 100 µM | KM12 39.3 µM | OVCAR-3 61.4 µM | HOP-62 > 100 µM | NCI-H23 60.4 µM | A549 47.5 µM | EKVX 33.5 µM | IGROV-1 50.7 µM | HOP-92 > 100 µM | MCF7 15.5 µM | MDA-MB-435 41.4 µM | HT-29 28.1 µM | U-251 40.2 µM | SF-268 79.8 µM | SK-MEL-5 34.7 µM | SK-MEL-2 20.3 µM | MDA-N 39.6 µM | SF-295 28.1 µM | OVCAR-8 > 100 µM | NCI-H460 88.3 µM | SK-OV-3 > 100 µM | DU-145 84.3 µM | COLO 205 41.9 µM | SNB-19 > 100 µM | RPMI-8226 45.2 µM | 786-0 > 100 µM | SF-539 > 100 µM | PC-3 64.4 µM | NCI-H226 60.3 µM | T47D 14.6 µM | UACC-257 24.2 µM | SN12C 65.3 µM | NCI-H522 25.5 µM | MDA-MB-231 31.7 µM | RXF 393 29.1 µM | ACHN 31 µM | SK-MEL-28 68.4 µM | OVCAR-4 > 100 µM | NCI/ADR-RES 94 µM

COC(=O)c1c(O)ccc2c1c1c(n2Cc2ccc(OC)cc2)C(=O)c2ccccc2C1
inactive: SR 66.2 µM | M14 38.7 µM | UACC-62 > 100 µM | CAKI-1 20.6 µM | SW-620 82.8 µM | TK-10 84.1 µM | HCT-116 60.4 µM | A498 > 100 µM | UO-31 41.6 µM | K562 76.7 µM | MOLT-4 40.8 µM | SNB-75 51.2 µM | LOX IMVI 57.7 µM | CCRF-CEM 21.9 µM | Hs-578T > 100 µM | Malme-3M > 100 µM | BT-549 > 100 µM | KM12 63.7 µM | OVCAR-3 63.2 µM | HOP-62 > 100 µM | NCI-H23 63.4 µM | A549 45.9 µM | IGROV-1 21.6 µM | MCF7 22.4 µM | MDA-MB-435 45.7 µM | HT-29 21.7 µM | U-251 47.3 µM | SF-268 30.3 µM | SK-MEL-5 44.6 µM | SK-MEL-2 62.5 µM | MDA-N 53.1 µM | SF-295 47.4 µM | OVCAR-8 > 100 µM | NCI-H460 29.3 µM | SK-OV-3 31 µM | DU-145 > 100 µM | COLO 205 16.9 µM | SNB-19 71 µM | RPMI-8226 8.22 µM | 786-0 53.2 µM | SF-539 42.2 µM | PC-3 18.5 µM | NCI-H226 > 100 µM | UACC-257 44.4 µM | SN12C 27 µM | MDA-MB-231 32.4 µM | HL-60 > 100 µM | RXF 393 20.3 µM | SK-MEL-28 > 100 µM | OVCAR-4 30.8 µM | NCI/ADR-RES 32.9 µM
52.1 µM: HCT-15

COc1c2c(cc3c1C(=O)c1c(O)cccc1C3=O)CC(O)CC2 (stereo not given)
35.8 µM: HCT-15
inactive: M14 32 µM | UACC-62 28.5 µM | CAKI-1 > 100 µM | SW-620 > 100 µM | TK-10 50.5 µM | HCT-116 24.6 µM | A498 22.8 µM | UO-31 56.9 µM | K562 > 100 µM | MOLT-4 > 100 µM | SNB-75 34.8 µM | LOX IMVI > 100 µM | CCRF-CEM > 100 µM | Hs-578T 26.7 µM | Malme-3M 49.8 µM | OVCAR-5 > 100 µM | BT-549 19.5 µM | KM12 > 100 µM | OVCAR-3 > 100 µM | HOP-62 19.3 µM | NCI-H23 20.1 µM | A549 > 100 µM | EKVX 29.8 µM | IGROV-1 85.5 µM | HOP-92 18.7 µM | MCF7 > 100 µM | MDA-MB-435 > 100 µM | HT-29 > 100 µM | U-251 50.9 µM | SK-MEL-5 > 100 µM | SK-MEL-2 > 100 µM | HCC 2998 > 100 µM | MDA-N > 100 µM | SF-295 19.2 µM | OVCAR-8 40.5 µM | NCI-H460 > 100 µM | SK-OV-3 21.5 µM | DU-145 57.7 µM | COLO 205 > 100 µM | SNB-19 19.7 µM | 786-0 25.6 µM | SF-539 28.8 µM | PC-3 67.9 µM | NCI-H226 54.5 µM | T47D 7.18 µM | UACC-257 > 100 µM | SN12C > 100 µM | MDA-MB-231 21.6 µM | HL-60 > 100 µM | ACHN 23.6 µM | SK-MEL-28 > 100 µM | OVCAR-4 > 100 µM | NCI/ADR-RES 35.8 µM
